Results taken from the supplement of paper PMC10307832.

What was measured:
Assay in all cases: relative viability (nuclei count vs DMSO), 5 days (fraction); higher = more cells survive
NCI-H647 = tested on: NCI-H647
Procedure, shortened: (§1)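 A single step with final 0.05% Triton X-100, 1% formaldehyde and 1 ug/ml Hoechst fixed the cells and stained nuclei 5 days after treatment. Lung cancer cell lines in 1536-well plates had been treated by pin tool the day after seeding with one drug alone or a fixed anchor-drug dose plus five library-drug doses (not always all listed) in √10 steps, and nuclei were counted on 4× images. Relative viability is the ratio of nuclei in treated wells to nuclei in vehicle wells, taken as the median of duplicate plates.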

NCI-H1355 = tested on: NCI-H1355
Procedure, shortened: as §1

NCI-H1792 = tested on: NCI-H1792
Procedure, shortened: as §1

NCI-H522 = tested on: NCI-H522
Procedure, shortened: as §1

SK-LU-1 = tested on: SK-LU-1
Procedure, shortened: as §1

HARA = tested on: HARA
Procedure, shortened: as §1

EKVX = tested on: EKVX
Procedure, shortened: as §1

NCI-H661 = tested on: NCI-H661
Procedure, shortened: as §1

NCI-H2009 = tested on: NCI-H2009
Procedure, shortened: as §1

LOU-NH91 = tested on: LOU-NH91
Procedure, shortened: as §1

SK-MES-1 = tested on: SK-MES-1
Procedure, shortened: as §1

NCI-H2170 = tested on: NCI-H2170
Procedure, shortened: as §1

NCI-H2342 = tested on: NCI-H2342
Procedure, shortened: as §1

NCI-H1734 = tested on: NCI-H1734
Procedure, shortened: as §1

NCI-H2087 = tested on: NCI-H2087
Procedure, shortened: as §1

NCI-H2405 = tested on: NCI-H2405
Procedure, shortened: as §1

NCI-H1993 = tested on: NCI-H1993
Procedure, shortened: as §1

NCI-H1437 = tested on: NCI-H1437
Procedure, shortened: as §1

BEN = tested on: BEN
Procedure, shortened: as §1

HCC-827 = tested on: HCC-827
Procedure, shortened: as §1

HCC-366 = tested on: HCC-366
Procedure, shortened: as §1

NCI-H1395 = tested on: NCI-H1395
Procedure, shortened: as §1

SMILES: Cc1sc2c(c1C)C(c1ccc(Cl)cc1)=N[C@@H](CC(=O)OC(C)(C)C)c1nnc(C)n1-2 [JQ1] + Nc1nc2[nH]cc(CCc3ccc(C(=O)N[C@@H](CCC(=O)O)C(=O)O)cc3)c2c(=O)[nH]1 [Pemetrexed] (partner 0.2 µM)
- relative viability (NCI-H647; first compound 0.04 µM): 0.156
- relative viability (NCI-H647; first compound 0.1265 µM): 0.125
- relative viability (NCI-H647; first compound 0.4 µM): 0.105
- relative viability (NCI-H647; first compound 1.265 µM): 0.0945
- relative viability (NCI-H647; first compound 4 µM): 0.0741
- relative viability (NCI-H1355; first compound 0.04 µM): 1.05
- relative viability (NCI-H1355; first compound 0.1265 µM): 1.04
- relative viability (NCI-H1355; first compound 0.4 µM): 1.07
- relative viability (NCI-H1355; first compound 1.265 µM): 0.893
- relative viability (NCI-H1355; first compound 4 µM): 0.718
- relative viability (NCI-H1792; first compound 0.04 µM): 0.705
- relative viability (NCI-H1792; first compound 0.1265 µM): 0.699
- relative viability (NCI-H1792; first compound 0.4 µM): 0.434
- relative viability (NCI-H1792; first compound 1.265 µM): 0.15
- relative viability (NCI-H1792; first compound 4 µM): 0.0524
- relative viability (NCI-H522; first compound 0.04 µM): 0.929
- relative viability (NCI-H522; first compound 0.1265 µM): 0.877
- relative viability (NCI-H522; first compound 0.4 µM): 0.54
- relative viability (NCI-H522; first compound 1.265 µM): 0.59
- relative viability (NCI-H522; first compound 4 µM): 0.444
- relative viability (SK-LU-1; first compound 0.04 µM): 0.974
- relative viability (SK-LU-1; first compound 0.1265 µM): 0.766
- relative viability (SK-LU-1; first compound 0.4 µM): 0.607
- relative viability (SK-LU-1; first compound 1.265 µM): 0.278
- relative viability (SK-LU-1; first compound 4 µM): 0.181
- relative viability (HARA; first compound 0.04 µM): 0.249
- relative viability (HARA; first compound 0.1265 µM): 0.271
- relative viability (HARA; first compound 0.4 µM): 0.235
- relative viability (HARA; first compound 1.265 µM): 0.217
- relative viability (HARA; first compound 4 µM): 0.185
- relative viability (EKVX; first compound 0.04 µM): 0.351
- relative viability (EKVX; first compound 0.1265 µM): 0.396
- relative viability (EKVX; first compound 0.4 µM): 0.304
- relative viability (EKVX; first compound 1.265 µM): 0.362
- relative viability (EKVX; first compound 4 µM): 0.264
- relative viability (NCI-H661; first compound 0.04 µM): 0.914
- relative viability (NCI-H661; first compound 0.1265 µM): 0.876
- relative viability (NCI-H661; first compound 0.4 µM): 0.916
- relative viability (NCI-H661; first compound 1.265 µM): 0.482
- relative viability (NCI-H661; first compound 4 µM): 0.423
- relative viability (NCI-H2009; first compound 0.04 µM): 0.958
- relative viability (NCI-H2009; first compound 0.1265 µM): 0.795
- relative viability (NCI-H2009; first compound 0.4 µM): 0.954
- relative viability (NCI-H2009; first compound 1.265 µM): 0.459
- relative viability (NCI-H2009; first compound 4 µM): 0.234
- relative viability (LOU-NH91; first compound 0.04 µM): 0.365
- relative viability (LOU-NH91; first compound 0.1265 µM): 0.387
- relative viability (LOU-NH91; first compound 0.4 µM): 0.354
- relative viability (LOU-NH91; first compound 1.265 µM): 0.334
- relative viability (LOU-NH91; first compound 4 µM): 0.362
- relative viability (SK-MES-1; first compound 0.04 µM): 0.967
- relative viability (SK-MES-1; first compound 0.1265 µM): 0.686
- relative viability (SK-MES-1; first compound 0.4 µM): 0.397
- relative viability (SK-MES-1; first compound 1.265 µM): 0.289
- relative viability (SK-MES-1; first compound 4 µM): 0.235
- relative viability (NCI-H2170; first compound 0.04 µM): 0.257
- relative viability (NCI-H2170; first compound 0.1265 µM): 0.263
- relative viability (NCI-H2170; first compound 0.4 µM): 0.248
- relative viability (NCI-H2170; first compound 1.265 µM): 0.238
- relative viability (NCI-H2170; first compound 4 µM): 0.194
- relative viability (NCI-H2342; first compound 0.04 µM): 0.805
- relative viability (NCI-H2342; first compound 0.1265 µM): 0.73
- relative viability (NCI-H2342; first compound 0.4 µM): 0.852
- relative viability (NCI-H2342; first compound 1.265 µM): 0.781
- relative viability (NCI-H2342; first compound 4 µM): 0.617
- relative viability (NCI-H1734; first compound 0.04 µM): 0.358
- relative viability (NCI-H1734; first compound 0.1265 µM): 0.347
- relative viability (NCI-H1734; first compound 0.4 µM): 0.327
- relative viability (NCI-H1734; first compound 1.265 µM): 0.342
- relative viability (NCI-H1734; first compound 4 µM): 0.283
- relative viability (NCI-H2087; first compound 0.04 µM): 0.621
- relative viability (NCI-H2087; first compound 0.1265 µM): 0.675
- relative viability (NCI-H2087; first compound 0.4 µM): 0.692
- relative viability (NCI-H2087; first compound 1.265 µM): 0.558
- relative viability (NCI-H2087; first compound 4 µM): 0.463
- relative viability (NCI-H2405; first compound 0.04 µM): 1.08
- relative viability (NCI-H2405; first compound 0.4 µM): 0.899
- relative viability (NCI-H2405; first compound 1.265 µM): 0.72
- relative viability (NCI-H2405; first compound 4 µM): 0.321
- relative viability (NCI-H1993; first compound 0.04 µM): 0.592
- relative viability (NCI-H1993; first compound 0.1265 µM): 0.649
- relative viability (NCI-H1993; first compound 0.4 µM): 0.583
- relative viability (NCI-H1993; first compound 1.265 µM): 0.478
- relative viability (NCI-H1993; first compound 4 µM): 0.49
- relative viability (NCI-H1437; first compound 0.04 µM): 0.303
- relative viability (NCI-H1437; first compound 0.1265 µM): 0.309
- relative viability (NCI-H1437; first compound 0.4 µM): 0.244
- relative viability (NCI-H1437; first compound 1.265 µM): 0.201
- relative viability (NCI-H1437; first compound 4 µM): 0.208
- relative viability (BEN; first compound 0.04 µM): 0.7
- relative viability (BEN; first compound 0.1265 µM): 0.523
- relative viability (BEN; first compound 0.4 µM): 0.67
- relative viability (BEN; first compound 1.265 µM): 0.518
- relative viability (BEN; first compound 4 µM): 0.384
- relative viability (HCC-827; first compound 0.04 µM): 0.262
- relative viability (HCC-827; first compound 0.1265 µM): 0.255
- relative viability (HCC-827; first compound 1.265 µM): 0.211
- relative viability (HCC-827; first compound 4 µM): 0.247
- relative viability (HCC-366; first compound 0.04 µM): 0.16
- relative viability (HCC-366; first compound 0.4 µM): 0.136
- relative viability (HCC-366; first compound 1.265 µM): 0.13
- relative viability (HCC-366; first compound 4 µM): 0.104
- relative viability (NCI-H1395; first compound 0.04 µM): 0.911
- relative viability (NCI-H1395; first compound 0.1265 µM): 0.737
- relative viability (NCI-H1395; first compound 0.4 µM): 0.797
- relative viability (NCI-H1395; first compound 1.265 µM): 0.496
- relative viability (NCI-H1395; first compound 4 µM): 0.343
